Values of other authors as cited in US20180206518A1, “METHOD OF MAKING CANNABIS OIL H[…] E[…] RELATED CANNABINOID COMPOSITIONS” (priority 2016, published 2018).

Details: edible cannabis products, depending on liver function

CCCCCc1cc(O)c2c(c1)OC(C)(C)[C@@H]1CCC(C)=CC21 (stereo partly shown) [THC, Δ9-tetrahydrocannabinol]
THC able to be metabolized: 2-6%
